Experimental data as given in patent US6426355B1, “Heterocyclic carboxamide-containing thiourea inhibitors of herpes viruses containing phenylenediamine group” (American Home Products, priority 1998, dated 2002).
In brackets after ≈: the same amount, converted by molar mass.

Legend:
[1] = test system: HCMV recombinant mutant virus (RV145); assay: HCMV microtiter plate assay (beta-glucuronidase reporter); type: cell-based, Human Cytomegalovirus; conditions: for IC50: Human betaherpesvirus 5, Fibroblast, read-out: IC50 (ug/ml) HCMV; for IC50 (ug/ml) HCMV: HCMV in human foreskin fibroblasts
In short: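 Replication was read out as virus-encoded β-glucuronidase activity, measured with a chromogenic or fluorogenic glucuronide substrate in cell lysates at 96 h post-infection. Infection of human foreskin fibroblasts with RV145 took place with compound present. IC50 was derived from a range of inhibitor amounts.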

HSV-1 = assay: HSV Antiviral (ELISA) assay; type: cell-based; conditions: for IC50: Human alphaherpesvirus 1, HSV-1 in Vero cells, read-out: IC50 (ug/ml) HSV; for IC50 (ug/ml) HSV: HSV-1 in Vero cells
Method: Vero cells (ATCC #CCL-81) are plated on 96-well tissue culture plates at 3.5×10^4 cells per 100 μl tissue culture DMEM (Dulbecco's modified Eagle media) supplemented with 2% fetal bovine serum (FBS) in each well. After overnight incubation @ 37° C. (in 5% CO2) and 30 minutes prior to infection with HSV-1 (multiplicity of infection equal to 0.006), cells are either untreated, or treated with test compound (multiple concentrations) or reference standard drug control. After approximately 24 hours post-infection incubation @ 37° C. (in 5% CO2), cells are fixed for ELISA assay. The primary antibody is murine anti-HSV glycoprotein D monoclonal primary antibody and the secondary antibody is goat anti-mouse IgG linked to β-galactosidase. Thus the extent of viral replication is determined by assessing β-galactosidase activity by quantifying the generation of the 4-methyl umbelliferone fluorescent cleavage product after addition of the methyl umbelliferyl-β-D-galactoside (Sigma #M1633) substrate on a microfluorimeter (365 nm for excitation and 450 nm for emission). Antiviral activity (IC50) of the test compound is determined by comparing the flourescence obtained in absence of compound to that obtained in the presence of compound.

VZV strain Ellen = assay: VZV Antiviral (ELISA) assay; type: cell-based; conditions: for IC50: Human alphaherpesvirus 3, VZV strain Ellen in HFF cells, read-out: IC50 (ug/ml) VZV; for IC50 (ug/ml) VZV / % inhibition 10 ug/ml VZV: VZV strain Ellen in HFF cells; for % inhibition 10 ug/ml VZV: at 10 ug/ml
Method: For the generation of stock VZV to be used in the assay, VZV strain Ellen (ATCC #VR-1367) is used to infect human foreskin fibroblast (HFF) cells at low multiplicity (less than 0.1) and incubated overnight at 37° C. in 5% CO2. After the overnight incubation, the mixture of uninfected and VZV-infected HFF infected cells are then harvested and added to each well of 96-well plates (3.5×10^4 cells in 100 μl DMEM supplemented with 2% FBS) which contain test compound or the reference standard drug control (in 100 μl DMEM supplemented with 2% FBS per well). These cells are incubated for three days at 37° C. in 5% CO2, then fixed for ELISA assay. The primary antibody is murine anti-VZV glycoprotein II monoclonal antibody (Applied Biosystems, Inc. #13-145-100) and the secondary antibody is goat anti-mouse IgG linked to β-galactosidase. Thus the extent of viral replication is determined by assessing β-galactosidase activity by quantifying the generation of the 4-methyl umbelliferone fluorescent cleavage product after addition of the methyl umbelliferyl-β-D-galactoside (Sigma #M1633) substrate on a microfluorimeter (365 nm for excitation and 450 nm for emission). Antiviral activity (IC50) of the test compound is determined by comparing the flourescence obtained in absence of compound to that obtained in the presence of compound.

| Compound | IC50 [1] | IC50 (HSV-1) | IC50 (VZV strain Ellen) | inhibition at 10 µg/mL (VZV strain Ellen; Human alphaherpesvirus 3, read-out: % inhibition 10 ug/ml VZV, at 10 ug/ml, VZV strain Ellen in HFF cells) | IC50 (ug/ml) HCMV [1] | IC50 (ug/ml) HSV (HSV-1) | IC50 (ug/ml) VZV (VZV strain Ellen) | % inhibition 10 ug/ml VZV (VZV strain Ellen) |
| --- | --- | --- | --- | --- | --- | --- | --- | --- |
| O=C(Nc1ccc(NC(=O)c2csnn2)cc1)Nc1cc(Cl)cc(Cl)c1 [Example 86, [1,2,3]Thiadiazole-4-carboxylic acid {4-[3-(3,5-dichloro-phenyl)-ureido]-phenyl}-amide] | 0.04 µg/mL (≈ 0.098 µM) | > 10 µg/mL | > 10 µg/mL | 32% | – | – | – | – |
| O=C(Nc1ccc(NC(=O)c2ccco2)cc1)Nc1cc(C(F)(F)F)cc(C(F)(F)F)c1 [Example 88, Furan-2-carboxylic acid {4-[3-(3,5-bis-trifluoromethyl-phenyl)-ureido]-phenyl}-amide] | 0.013 µg/mL (≈ 0.0284 µM) | > 10 µg/mL | 0.03 µg/mL (≈ 0.0656 µM) | – | – | – | – | – |
| C[C@H](NC(=S)Nc1ccc(NC(=O)c2cscn2)nc1)c1cc(C(F)(F)F)cc(C(F)(F)F)c1 [Example 91] | – | – | – | – | 0.018 µg/mL (≈ 0.0346 µM) | >10 µg/mL | >10 µg/mL | 6% |
| COc1cc(OC)c(NC(=S)Nc2ccc(NC(=O)c3ccc(C)s3)cc2)cc1Cl [Example 145] | – | – | – | – | >10 µg/mL | 2 µg/mL (≈ 4.33 µM) | >15 µg/mL | 51% |
| COc1cc(OC)c(NC(=S)Nc2ccc(NC(=O)c3cccc4cccnc34)cc2)cc1Cl [Example 146] | – | – | – | – | >10 µg/mL | >10 µg/mL | >10 µg/mL | 14% |
| COc1cc(OC)c(NC(=S)Nc2ccc(NC(=O)c3cccn3C)cc2)cc1Cl [Example 147] | – | – | – | – | >50 µg/mL | 10 µg/mL (≈ 22.5 µM) | >10 µg/mL | 42% |
| COc1cc(OC)c(NC(=S)Nc2ccc(NC(=O)c3cc4ccccc4s3)cc2)cc1Cl [Example 153] | – | – | – | – | >10 µg/mL | 2 µg/mL (≈ 4.02 µM) | >10 µg/mL | 8% |
| COc1cc(OC)c(NC(=S)Nc2ccc(NC(=O)c3cc4ccccc4o3)cc2)cc1Cl [Example 154] | – | – | – | – | 10 µg/mL (≈ 20.7 µM) | 4 µg/mL (≈ 8.3 µM) | >10 µg/mL | 23% |
| COc1cc(OC)c(NC(=S)Nc2ccc(NC(=O)c3ccncc3)cc2)cc1Cl [Example 155] | – | – | – | – | 5 µg/mL (≈ 11.3 µM) | 5 µg/mL (≈ 11.3 µM) | >10 µg/mL | 22% |
| COc1cc(OC)c(NC(=S)Nc2ccc(NC(=O)c3nccc4ccccc34)cc2)cc1Cl [Example 158] | – | – | – | – | >10 µg/mL | 4 µg/mL (≈ 8.11 µM) | >15 µg/mL | 52% |
| COc1cc(OC)c(NC(=S)Nc2ccc(NC(=O)c3ccc4ccccc4n3)cc2)cc1Cl [Example 159] | – | – | – | – | >10 µg/mL | >10 µg/mL | >10 µg/mL | 62% |
| COc1cc(OC)c(NC(=S)Nc2ccc(NC(=O)c3cccnc3)cc2)cc1Cl [Example 160] | – | – | – | – | >10 µg/mL | 2.5 µg/mL (≈ 5.64 µM) | >10 µg/mL | 27% |
| COc1cc(OC)c(NC(=S)Nc2ccc(NC(=O)c3ccc([N+](=O)[O-])o3)cc2)cc1Cl [Example 161] | – | – | – | – | >10 µg/mL | 3 µg/mL (≈ 6.29 µM) | 5 µg/mL (≈ 10.5 µM) | 113% |
| COc1cc(OC)c(NC(=S)Nc2ccc(NC(=O)c3ccc(Cl)o3)cc2)cc1Cl [Example 163] | – | – | – | – | 7 µg/mL (≈ 15 µM) | 3 µg/mL (≈ 6.43 µM) | >10 µg/mL | 30% |
| COc1cc(OC)c(NC(=S)Nc2ccc(NC(=O)c3ccoc3)cc2)cc1Cl [Example 166] | – | – | – | – | >10 µg/mL | 9 µg/mL (≈ 20.8 µM) | >10 µg/mL | 30% |
| COc1cc(OC)c(NC(=S)Nc2ccc(NC(=O)c3occc3C)cc2)cc1Cl [Example 167] | – | – | – | – | 9 µg/mL (≈ 20.2 µM) | 10 µg/mL (≈ 22.4 µM) | 3.8 µg/mL (≈ 8.52 µM) | 70% |
| COc1cc(OC)c(NC(=S)Nc2ccc(NC(=O)c3ccc(Br)o3)cc2)cc1Cl [Example 168] | – | – | – | – | 2.5 µg/mL (≈ 4.89 µM) | 3 µg/mL (≈ 5.87 µM) | >10 µg/mL | – |
| O=C(Nc1ccc(NC(=S)NCCOc2cc(C(F)(F)F)ccc2F)cc1)c1csnn1 [Example 737] | – | – | – | – | 0.005 µg/mL (≈ 0.0103 µM) | >10 µg/mL | – | – |

| Compound | IC50 [1] | IC50 (HSV-1) | IC50 (VZV strain Ellen) | inhibition at 10 µg/mL (VZV strain Ellen; Human alphaherpesvirus 3, read-out: % inhibition 10 ug/ml VZV, at 10 ug/ml, VZV strain Ellen in HFF cells) | IC50 (ug/ml) HCMV [1] | IC50 (ug/ml) HSV (HSV-1) | IC50 (ug/ml) VZV (VZV strain Ellen) | % inhibition 10 ug/ml VZV (VZV strain Ellen) |
| --- | --- | --- | --- | --- | --- | --- | --- | --- |
| O=C(Nc1ccc(NC(=S)NCCc2ccccc2F)cc1)c1ccco1 [Example 738] | – | – | – | – | 0.11 µg/mL (≈ 0.287 µM) | >10 µg/mL | – | – |
| O=C(Nc1ccc(NC(=S)Nc2ccc(Br)cc2)cc1)c1csnn1 [Example 739] | – | – | – | – | 0.02 µg/mL (≈ 0.046 µM) | >10 µg/mL | – | – |
| O=C(Nc1ccc(NC(=S)NCc2ccc(F)cc2)cc1)c1csnn1 [Example 741] | – | – | – | – | 0.02 µg/mL (≈ 0.0516 µM) | >10 µg/mL | – | – |
| O=C(Nc1ccc(NC(=S)NCc2ccc(Cl)cc2)cc1)c1csnn1 [Example 742] | – | – | – | – | 0.009 µg/mL (≈ 0.0223 µM) | >10 µg/mL | – | – |
| O=C(Nc1ccc(NC(=S)NCc2ccc(Br)cc2)cc1)c1csnn1 [Example 743] | – | – | – | – | 0.09 µg/mL (≈ 0.201 µM) | >10 µg/mL | – | – |
| O=C(Nc1ccc(NC(=S)NCc2ccc(Cl)c(Cl)c2)cc1)c1cscn1 [Example 745] | – | – | – | – | 0.0025 µg/mL (≈ 0.00572 µM) | 9 µg/mL (≈ 20.6 µM) | – | – |
| O=C(Nc1ccc(NC(=S)NCc2cc(C(F)(F)F)ccc2F)cc1)c1cscn1 [Example 746] | – | – | – | – | 0.005 µg/mL (≈ 0.011 µM) | >10 µg/mL | – | – |
| CC(C)(C)c1ccc(CNC(=S)Nc2ccc(NC(=O)c3cscn3)cc2)cc1 [Example 747] | – | – | – | – | 0.002 µg/mL (≈ 0.00471 µM) | >10 µg/mL | – | – |
| O=C(Nc1ccc(NC(=S)Nc2ccccc2F)cc1)c1csnn1 [Example 748] | – | – | – | – | 0.28 µg/mL (≈ 0.75 µM) | >10 µg/mL | – | – |
| O=C(Nc1ccc(NC(=S)NCCOc2cccc(I)c2)cc1)c1csnn1 [Example 750] | – | – | – | – | 0.01 µg/mL (≈ 0.019 µM) | >10 µg/mL | – | – |
| O=C(Nc1ccc(NC(=S)NCCc2ccc(F)c(C(F)(F)F)c2)cc1)c1csnn1 [Example 764] | – | – | – | – | 0.004 µg/mL (≈ 0.00852 µM) | >10 µg/mL | – | – |
| O=C(Nc1ccc(NC(=S)NCCc2cccc(C(F)(F)F)c2F)cc1)c1csnn1 [Example 766] | – | – | – | – | 0.006 µg/mL (≈ 0.0128 µM) | >10 µg/mL | – | – |
| O=C(Nc1ccc(NC(=S)NCCc2cccc(I)c2)cc1)c1csnn1 [Example 768] | – | – | – | – | 0.005 µg/mL (≈ 0.00982 µM) | >10 µg/mL | – | – |
| O=C(Nc1ccc(NC(=S)NCCc2ccc(F)cc2C(F)(F)F)cc1)c1csnn1 [Example 769] | – | – | – | – | 0.04 µg/mL (≈ 0.0852 µM) | >10 µg/mL | – | – |
| O=C(Nc1ccc(NC(=S)NCCc2cccc(Br)c2)cc1)c1csnn1 [Example 770] | – | – | – | – | 0.006 µg/mL (≈ 0.013 µM) | >10 µg/mL | – | – |
| O=C(Nc1ccc(NC(=S)Nc2ccccc2Cl)cc1)c1ccccc1F [Example 998, N-{4-[3-(2-Chloro-phenyl)-thioureido]-phenyl}-2-fluoro-benzamide] | 0.016 µg/mL (≈ 0.04 µM) | > 10 µg/mL | – | – | – | – | – | – |
| COC(=O)c1cccc(NC(=S)Nc2ccc(NC(=O)c3ccccc3F)cc2)c1 [Example 1000, 3-{3-[4-(2-Fluoro-benzoylamino)-phenyl]-thioureido}-benzoic acid methyl ester] | 0.39 µg/mL (≈ 0.921 µM) | > 10 µg/mL | – | – | – | – | – | – |
| NC(=O)c1cccc(NC(=S)Nc2ccc(NC(=O)c3ccccc3F)cc2)c1 [Example 1002, N-[4-[[[[3-(Aminocarbonyl)phenyl]-amino]thioxomethyl]amino]phenyl]-2-fluoro-benzamide] | 0.07 µg/mL (≈ 0.171 µM) | > 10 µg/mL | – | – | – | – | – | – |
